Laboratory results reported in the CheMixHub drug solubility set.

Experiment: xn = mol fraction of the nth substance listed, in the solute-free solvent

CN1CCC(N(Cc2cccs2)c2ccccc2)CC1 + CCCO + O
solubility (g/100 g solution)
Conditions | 278.15 K | 283.15 K | 288.15 K | 293.15 K | 298.15 K | 303.15 K | 308.15 K | 313.15 K | 318.15 K | 323.15 K
x2 = 0.03225 | 0.166 | 0.176 | 0.187 | 0.203 | 0.221 | 0.243 | 0.267 | 0.289 | 0.318 | 0.348
x2 = 0.06974 | 0.411 | 0.434 | 0.458 | 0.492 | 0.533 | 0.581 | 0.632 | 0.682 | 0.743 | 0.808
x2 = 0.1139 | 0.734 | 0.774 | 0.815 | 0.873 | 0.943 | 1.02 | 1.11 | 1.2 | 1.3 | 1.41
x2 = 0.1666 | 1.05 | 1.11 | 1.18 | 1.26 | 1.36 | 1.48 | 1.61 | 1.73 | 1.88 | 2.04
x2 = 0.2307 | 1.32 | 1.4 | 1.49 | 1.6 | 1.73 | 1.89 | 2.06 | 2.22 | 2.41 | 2.62
x2 = 0.3103 | 1.55 | 1.66 | 1.77 | 1.91 | 2.08 | 2.26 | 2.48 | 2.69 | 2.93 | 3.18
x2 = 0.4117 | 1.77 | 1.9 | 2.04 | 2.21 | 2.4 | 2.63 | 2.87 | 3.13 | 3.45 | 3.75
x2 = 0.5454 | 1.97 | 2.13 | 2.3 | 2.5 | 2.74 | 3 | 3.31 | 3.62 | 3.96 | 4.32
x2 = 0.7297 | 2.09 | 2.27 | 2.47 | 2.7 | 2.97 | 3.26 | 3.62 | 3.98 | 4.36 | 4.77

Nc1cccc2ccncc12 + CCCO + O
solubility (g/100 g solution)
Conditions | 278.15 K | 283.15 K | 288.15 K | 293.15 K | 298.15 K | 303.15 K | 308.15 K | 313.15 K | 318.15 K | 323.15 K
x2 = 0.03225 | 0.0813 | 0.0931 | 0.106 | 0.124 | 0.14 | 0.162 | 0.187 | 0.216 | 0.247 | 0.285
x2 = 0.06974 | 0.175 | 0.199 | 0.226 | 0.263 | 0.297 | 0.341 | 0.393 | 0.45 | 0.513 | 0.589
x2 = 0.1139 | 0.299 | 0.34 | 0.385 | 0.448 | 0.506 | 0.58 | 0.668 | 0.764 | 0.87 | 0.997
x2 = 0.1666 | 0.433 | 0.493 | 0.56 | 0.652 | 0.739 | 0.848 | 0.978 | 1.12 | 1.27 | 1.46
x2 = 0.2307 | 0.521 | 0.606 | 0.711 | 0.84 | 0.964 | 1.11 | 1.28 | 1.47 | 1.69 | 1.94
x2 = 0.3103 | 0.618 | 0.731 | 0.862 | 1.01 | 1.16 | 1.33 | 1.55 | 1.78 | 2.06 | 2.38
x2 = 0.4117 | 0.686 | 0.822 | 0.992 | 1.18 | 1.36 | 1.59 | 1.84 | 2.12 | 2.44 | 2.82
x2 = 0.5454 | 0.774 | 0.916 | 1.11 | 1.32 | 1.53 | 1.78 | 2.08 | 2.41 | 2.78 | 3.21
x2 = 0.7297 | 0.791 | 0.959 | 1.16 | 1.39 | 1.64 | 1.92 | 2.24 | 2.6 | 3.03 | 3.54
